The values that follow come from patent US8628792B2, “Drug cores for sustained release of therapeutic agents” (Mati Therapeutics, Inc., priority 2007, dated 2014).

The conditions of data set [1]: topical drop to the eye; cited from earlier work.
The conditions of data set [2]: cited from earlier work.
The nature of data set [3]: In vitro elution study of drug cores (drug in silicone matrix in polyimide tube) in 7.4 pH buffer, HPLC. Type of data set: physicochemical. Particulars: for elution rate: 1 day; for relative elution rate: all time periods to two weeks. The source says:
Drug cores as described above have been fabricated with different cross sectional sizes of 0.006 inches, 0.012 inches, and 0.025 inches, and drug concentrations of 5%, 10% and 20% in a silicone matrix. Theses drug cores can be made with a Syringe Tube and Cartridge Assembly, Mixing Latanoprost with Silicone, and Injecting the mixture into a polyimide tube which is cut to desired lengths and sealed. The length of the drug cores were approximately 0.80 to 0.95 mm, which for a diameter of 0.012 inches (0.32 mm) corresponds to total Latanoprost content in the drug cores of approximately 3.5 μg, 7 μg and 14 μg for concentrations of 5%, 10% and 20%, respectively.
Mix Latanoprost with Silicone. Prepare Latanoprost. Latanoprost is provided as a 1% solution in methylacetate. Place the appropriate amount of solution into a dish and using a nitrogen stream, evaporate the solution until only the Latanoprost remains. Place the dish with the Latanoprost oil under vacuum for 30 minutes. Combine Latanoprost with silicone. Prepare three different concentrations of Latanoprost (5%, 10% and 20%) in silicone Nusil 6385 and inject it into tubing of different diameters (0.006 in, 0.012 in and 0.025 inches) to generate 3×3 matrixes. The percent of Latanoprost to silicone is determined by the total weight of the drug matrix. Calculation: Weight of Latanoprost/(weight of Latanoprost+weight of silicone)×100=percent drug.
Inject tube. 1. Insert Cartridge and Polyimide tubes assembly into 1 ml syringe. 2. Add one drop of catalyst, (MED-6385 Curing Agent) in the syringe. 3. Force excess catalyst out of the polyimide tube with clean air. 4. Fill syringe with silicone drug matrix. 5, Inject tube with drug matrix until the tube is filled or the syringe plunger becomes too difficult to push. 6. Close off the distal end of the polyimide tube and maintain pressure until the silicone begins to solidify. 7. Allow to cure at room temperature for 12 hours. 8. Place under vacuum for 30 minutes. 9. Place tube in right size trim fixture (prepared in house to hold different size tubing) and cut drug inserts to length (0.80-0.95 mm).
Testing. Elution study (in vitro). 1. Place 10 plugs of same size and same concentration per centrifuge tube and add 1.5 ml of 7.4 pH buffer solution to it. 2. Change the solvent with fresh 7.4 pH buffer after appropriate time. 3. Take HPLC of the elutant at 210 nm with PDA detector 2996 using Sunfire C18, 3 mm×10 mm column (Waters Corporation, Milford, Mass.). Acetonitrile and water mixture is used for gradient elution. Calibration was done in house before and after each analysis, using in-house standards with precisely weighed concentration of Latanoprost. 4. Calculate the amount of drug release per day per device for different size tubings having different concentrations of Latanoprost. 5. Plot elution rate vs area and concentration for day 1 and day 14.

Data set [4] is described as follows: Bimatoprost bulk sample elution, normalized to ng per device per day. Type of data set: physicochemical. Particulars: for zero order elution rate: about 90 days. As for the experimental part: Bulk samples of 1% Bimatoprost having a known diameter of 0.076 cm (0.76 mm) were prepared. The height of each sample was determined from the weight and known diameter of the sample.
The calculated heights ranged from 0.33 cm to 0.42 cm. The exposed surface area on each end of each bulk sample was approximately 0.045 cm2, providing volumes of 0.019 cm3 and 0.015 cm3 for the 0.42 and 0.33 cm samples, respectively. The exposed an exposed surface area of samples calculated from the height and diameter without a drug sheath was approximately 0.1 cm2. Three formulations were evaluated: 1) silicone 4011, 1% Bimatoprost, 0% surfactant; 2) silicone 4011, 1% Bimatoprost, approximately 11% surfactant; and 3) silicone 4011, 1% Bimatoprost, approximately 33% surfactant. The elution data measured for the bulk samples with formulation 1, 2 and 3 were normalized to ng per device per day (ng/device/day) assuming a surface area of the bulk device is 0.1 cm2 and the surface area of the clinical device is 0.00078 cm2 (0.3 mm diameter). […] The normalized elution profile is about 10 ng per day. […] Similar formulations can be used with drug core sheaths and a shaped exposed surface of the core exposed to the tear to increase the exposed surface area as described above and deliver the drug in therapeutic amounts over an extended period.

[5] abbreviates: 20% bimatoprost in NuSil 6385, 0% salt.
Where [6] appears, read: 20% bimatoprost in NuSil 6385, 20% salt.

Consider `CC(C)(C)NC[C@H](O)COc1nsnc1N1CCOCC1` [Timolol], for which the bioavailability in data set [1] is recorded as 30-50%.

In the case of `O=C1OC2(c3ccc(O)cc3Oc3cc(O)ccc32)c2ccccc21` [Fluorescein], the “solubility in water” value in data set [2] was “soluble in water”.

As for `CCNC(=O)CCC/C=C\C[C@@H]1[C@@H](/C=C/[C@@H](O)CCc2ccccc2)[C@H](O)C[C@@H]1O` [Bimatoprost], the elution rate result is on record as “about 100 ng per day” in data set [3] (setting [5]); 400 ng per day in data set [3] (20% bimatoprost in NuSil 6385, 10% salt); “about 750 ng/day” in data set [3] (setting [6]). The results for the relative elution rate entry in data set [3] (setting [5]) and in data set [3] (setting [6]) were “lowest elution rate” and “highest elution rate”, respectively. The release kinetics result in data set [4] (from about ten days to about 90 days, each of the formulations 1-3) is reported as “approximately zero order release kinetics”. Besides, the “zero order elution rate” value is “about 60 ng per day” in data set [4] (scaled to 0.76 mm exposed diameter (0.0045 cm2)) and “about 100 ng per day” in data set [4] (scaled to exposed surface area about 0.0078 cm2). Besides, the normalized elution profile result in data set [4] (silicone 4011, 1% Bimatoprost, 0/11/33% surfactant bulk samples, normalized to 0.3 mm exposed surface diameter (0.00078 cm2)) was “about 10 ng per day”.
